Here are results for 22 compounds from US20060247261A1 (priority 2002, published 2006).

The term EC50 denotes the midpoint of the concentration-response curve. A high value points to a less potent agent. What is called Emax is the greatest response seen or fitted, relative to the assay's reference.

The target in the assay is T1, human cannabinoid CB2 receptor (Homo sapiens, UniProt P34972).
T1 construct: expressed in transfected cells; host or cells: Saccharomyces cerevisiae strain MMY23 (expresses a chimeric Gpa1/human Galpha-i3 G-protein alpha subunit)
The assay can be described thus: Cannabinoid CB2 receptor agonist activity, yeast reporter assay. As to conditions: for Emax: read-out: efficacy (Emax) at the cloned human cannabinoid CB2 receptor. Type of assay: cell-based. From the text:
Yeast (Saccharomyces cerevisiae) cells expressing the human cannabinoid CB2 receptor were generated by integration of an expression cassette into the ura3 chromosomal locus of yeast strain MMY23. This cassette consisted of DNA sequence encoding the human CB2 receptor flanked by the yeast GPD promoter to the 5′ end of CB2 and a yeast transcriptional terminator sequence to the 3′ end of CB2. MMY23 expresses a yeast/mammalian chimeric G-protein alpha subunit in which the C-terminal 5 amino acids of Gpa1 are replaced with the C-terminal 5 amino acids of human Gαi3 (as described in Brown et al. (2000), Yeast 16:11-22).
Agonists were prepared as 10 mM stocks in DMSO. […] Agonist solutions in DMSO (1% final assay volume) were transferred into black, clear bottom, microtitre plates from NUNC (96- or 384-well). […] Fluorescence was plotted against compound concentration and iteratively curve fitted using a four parameter fit to generate a concentration effect value.
(In a reporter assay the amount or activity of a reporter protein is the signal.)

T1 sequence (P34972 whole entry): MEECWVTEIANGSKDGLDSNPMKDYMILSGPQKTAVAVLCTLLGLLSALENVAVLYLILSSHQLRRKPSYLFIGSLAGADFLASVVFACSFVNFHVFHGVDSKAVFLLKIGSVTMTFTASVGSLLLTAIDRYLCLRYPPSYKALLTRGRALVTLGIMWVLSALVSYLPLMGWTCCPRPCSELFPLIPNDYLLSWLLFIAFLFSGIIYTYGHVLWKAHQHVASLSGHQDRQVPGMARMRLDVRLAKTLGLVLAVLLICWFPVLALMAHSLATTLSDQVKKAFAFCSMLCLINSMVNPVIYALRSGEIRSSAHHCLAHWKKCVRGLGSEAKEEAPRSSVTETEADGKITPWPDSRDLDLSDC

Turning to `N#Cc1ccc(CNC(=O)c2cnc(Nc3c(Cl)cccc3Cl)nc2C(F)(F)F)cc1` [Example 71, 2-(2,6-Dichloro-phenylamino)-4-trifluoroniethyl-pyrimidine-5-carboxylic acid N-(4-cyano-benzyl)amide], the EC50 was > 1000 nM and the Emax was < 50%.

Turning to `O=C(NCc1ccc(F)cc1Cl)c1cnc(Nc2cccc(Cl)c2)nc1C(F)(F)F` [Example 72, 2-(3-Chloro-phenylamino)-4-trifluoromethyl-pyrimidine-5-carboxylic acid N-(2-chloro-4-fluoro-benzyl)amide], the EC50 was > 1000 nM and the Emax is < 50%.

`O=C(NCc1ccc(F)cc1C(F)(F)F)c1cnc(Nc2cccc(Cl)c2)nc1C(F)(F)F` [Example 74, 2-(3-Chloro-phenylamino)-4-trifluoromethyl-pyrimidine-5-carboxylic acid N-(4-fluoro-2-trifluoromethyl-benzyl)amide]: the EC50 was > 1000 nM and the Emax was < 50%.

For the compound `O=C(NCc1ccc(F)c(C(F)(F)F)c1)c1cnc(Nc2cccc(Cl)c2)nc1C(F)(F)F` [Example 75, 2-(3-Chloro-phenylamino)-4-trifluoromethyl-pyrimidine-5-carboxylic acid N-(4-fluoro-3-trifluoromethyl-benzyl)amide], the EC50 was > 1000 nM and the Emax was < 50%.

For `O=C(NCc1ccncn1)c1cnc(Nc2cccc(F)c2)nc1C(F)(F)F` [Example 76, 2-(3-Fluoro-phenylamino)-4-trifluoromethyl-pyrimidine-5-carboxylic acid N-(pyrimidin-4-ylmethyl)-amide], the concentration giving a half-maximal response (EC50) is > 1000 nM and the maximal response (Emax) is < 50%.

Regarding `Cc1cc(CNC(=O)c2cnc(Nc3cccc(F)c3)nc2C(F)(F)F)ccn1` [Example 77, 2-(3-Fluoro-phenylamino)-4-trifluoromethyl-pyrimidine-5-carboxylic acid N-(2-methyl-pyridin-4-ylmethyl)-amide], the EC50 was > 1000 nM and the Emax is < 50%.

`Cc1ccc(CNC(=O)c2cnc(Nc3cccc(Cl)c3)nc2C(F)(F)F)cc1` [Example 78, 2-(3-Chloro-phenylamino)-4-trifluoromethyl-pyrimidine-5-carboxylic acid N-(4-methyl-benzyl)amide]: the EC50 is > 1000 nM and the maximal effect (Emax) is < 50%.

As to `O=C(NCc1ccc(F)c(F)c1)c1cnc(Nc2cccc(Cl)c2)nc1C(F)(F)F` [Example 81, 2-(3-Chloro-phenylamino)-4-trifluoromethyl-pyrimidine-5-carboxylic acid 3,4-difluoro-benzylamide], the half-maximal effective concentration (EC50) was 20 to 1000 nM and the Emax was > 50%.

For the compound `O=C(NCc1ccc(F)cc1)c1cnc(Nc2ccc(F)c(Cl)c2)nc1C(F)(F)F` [Example 82, 2-(3-Chloro-4-fluoro-phenylamino)-4-trifluoromethyl-pyrimidine-5-carboxylic acid 4-fluoro-benzylamide], the EC50 is 20 to 1000 nM and the Emax is > 50%.

As for `O=C(NCc1ccc(F)cc1)c1cnc(Nc2cccc(Cl)c2F)nc1C(F)(F)F` [Example 83, 2-(3-Chloro-2-fluoro-phenylamino)-4-trifluoromethyl-pyrimidine-5-carboxylic acid 4-fluoro-benzylamide], the half-maximal effective concentration (EC50) lay in the range of 20 to 1000 nM and the Emax was > 50%.

For the compound `O=C(NCc1ccc(F)cc1)c1cnc(Nc2cc(Cl)ccc2F)nc1C(F)(F)F` [Example 84, 2-(5-Chloro-2-fluoro-phenylamino)-4-trifluoromethyl-pyrimidine-5-carboxylic acid 4-fluoro-benzylamide], the 50% effective concentration (EC50) is 20 to 1000 nM and the Emax is > 50%.

For the compound `O=C(NCc1ccc(F)cc1)c1cnc(Nc2cc(F)cc(F)c2)nc1C(F)(F)F` [Example 85, 2-(3,5-Difluoro-phenylamino)-4-trifluoromethyl-pyrimidine-5-carboxylic acid 4-fluoro-benzylamide], the EC50 lay in the range of 20 to 1000 nM and the Emax was > 50%.

With `N#Cc1ccc(Nc2ncc(C(=O)NCc3ccc(F)cc3)c(C(F)(F)F)n2)cc1Cl` [Example 86, 2-(3-Chloro-4-cyano-phenylamino)-4-trifluoromethyl-pyrimidine-5-carboxylic acid 4-fluoro-benzylamide], the EC50 is 20 to 1000 nM and the maximal effect (Emax) was > 50%.

Turning to `COc1cccc(Nc2ncc(C(=O)NCc3ccncc3)c(C(F)(F)F)n2)c1` [Example 87], the EC50 lay in the range of 20 to 1000 nM and the maximal response (Emax) was > 50%.

Take `O=C(NCc1ccnc(F)c1)c1cnc(Nc2cccc(Br)c2)nc1C(F)(F)F` [Example 88, 2-(3-Bromo-phenylamino)-4-trifluoromethyl-pyrimidine-5-carboxylic acid (2-fluoro-pyridin4-ylmethyl)-amide]: the concentration for a half-maximal effect (EC50) is 20 to 1000 nM and the Emax is > 50%.

`O=C(NCc1ccnc(F)c1)c1cnc(Nc2cccc(F)c2)nc1C(F)(F)F` [Example 89, 2-(3-Fluoro-phenylamino)-4-trifluoromethyl-pyrimidine-5-carboxylic acid (2-fluoro-pyridin-4-ylmethyl)-amide]: the concentration giving a half-maximal response (EC50) lay in the range of 20 to 1000 nM and the Emax is > 50%.

As to `O=C(NCc1ccnc(F)c1)c1cnc(Nc2cc(Cl)ccc2Cl)nc1C(F)(F)F` [Example 90, 2-(2,5-Dichloro-phenylamino)-4-trifluoromethyl-pyrimidine-5-carboxylic acid (2-fluoro-pyridin-4-ylmethyl)-amide], the EC50 was 20 to 1000 nM and the Emax is > 50%.

For the compound `O=C(NCc1ccnc(F)c1)c1cnc(Nc2cc(Cl)cc(Cl)c2)nc1C(F)(F)F` [Example 91, 2-(3,5-Dichloro-phenylamino)-4-trifluoromethyl-pyrimidine-5-carboxylic acid (2-fluoro-pyridin-4-ylmethyl)-amide], the concentration for a half-maximal effect (EC50) is 20 to 1000 nM and the Emax is > 50%.

Consider `O=C(NCc1ccnc(F)c1)c1cnc(Nc2ccc(Cl)c(Cl)c2)nc1C(F)(F)F` [Example 92, 2-(3,4-Dichloro-phenylamino)-4-trifluoromethyl-pyrimidine-5-carboxylic acid (2-fluoro-pyridin-4-ylmethyl)-amide], for which the EC50 lay in the range of 20 to 1000 nM and the Emax is > 50%.

For the compound `O=C(NCc1ccnc(F)c1)c1cnc(Nc2c(Cl)cccc2Cl)nc1C(F)(F)F` [Example 93, 2-(2,6-Dichloro-phenylamino)-4-trifluoromethyl-pyrimidine-5-carboxylic acid (2-fluoro-pyridin-4-ylmethyl)-amide], the EC50 fell in the range of 20 to 1000 nM and the Emax is > 50%.

`O=C(NCc1ccnc(F)c1)c1cnc(Nc2cccc(Cl)c2Cl)nc1C(F)(F)F` [Example 94, 2-(2,3-Dichloro-phenylamino)-4-trifluoromethyl-pyrimidine-5-carboxylic acid (2-fluoro-pyridin-4-ylmethyl)-amide]: the 50% effective concentration (EC50) was in the range of 20 to 1000 nM and the Emax was > 50%.

For `O=C(NCc1ccnc(F)c1)c1cnc(Nc2ccc(Cl)cc2Cl)nc1C(F)(F)F` [Example 95, 2-(2,4-Dichloro-phenylamino)-4-trifluoromethyl-pyrimidine-5-carboxylic acid (2-fluoro-pyridin-4-ylmethyl)-amide], the half-maximal effective concentration (EC50) lay in the range of 20 to 1000 nM and the Emax is > 50%.
